According to patent US20250186405A1, “Compound For Use In Treating Narcolepsy” (Alkermes, Inc., priority 2023, published 2025):

Tested on: subjects with narcolepsy type-2 (NT2)
Assay: Part 5 POC NT2: treatment-emergent adverse events, single doses, crossover
Conditions: N = 9
Description: Part 5 consisted of a 4-way, 4-period crossover study design in approximately 8 subjects (2 subjects per sequence; minimum of 4 subjects with 1 subject per sequence). Subjects were randomized 1:1:1:1 to 1 of 4 sequences with 4 treatment periods (3 single doses of Compound A and 1 dose of matching placebo), with up to 48 hours of washout between treatments. Treatments were administered under fasted state.
Subjects were randomized to 1 of 4 sequences. […] In each period, subjects were administered a single dose of study drug (either Compound A or placebo) as per the randomization schedule with approximately 240 mL of noncarbonated water following overnight fasting. No food was given for at least 3 hours after dose administration (i.e., fast can be broken after the 3-hour PK time point is collected). Water was allowed ad libitum except for 1 hour before and 1 hour after study drug administration. Safety assessments including AEs, safety ECGs, vital signs, and clinical laboratory tests were conducted, and plasma PK samples were collected. Furthermore, BP and HR were monitored once every hour for 12 hours on the dosing days.
Adverse events (AEs) and serious adverse events (SAEs) were monitored continuously until the completion of the study.
Nine subjects with NT2 were dosed in Part 5 (POC in NT2) in a randomized 4-sequence 4-period cross-over design. Each dose of Compound A or matching placebo was separated by 2 days. A 14-day washout period preceded the treatment period and included discontinuation of narcolepsy medications. All 9 subjects underwent the washout period and received at least one dose of Compound A. All subjects completed all 4-way randomized crossover periods.

CS(=O)(=O)N[C@H]1CCCN2C(=O)COc3ccccc3C3CCC(CC3)OCC12 (stereo partly drawn) [Compound A, N-[(4S,4aR,7α,10α)-1,2,3,4,4a,5,7,8,9,10,16,17-dodecahydro-17-oxo-7,10-ethanopyrido[1,2-d][1,7,4]benzodioxaazacyclotridecin-4-yl]methanesulfonamide]
0 n (%): AE Leading to Study Drug Discontinuation (5 mg single dose) | Any SAEs (5 mg single dose) | Death (5 mg single dose) | Drug Related TEAE by Preferred Term: Altered state of consciousness (5 mg single dose) | Drug Related TEAE by Preferred Term: Dizziness (5 mg single dose) | Drug Related TEAE by Preferred Term: Dizziness postural (5 mg single dose) | Drug Related TEAE by Preferred Term: Feeling jittery (5 mg single dose) | Drug Related TEAE by Preferred Term: Headache (5 mg single dose) | Drug Related TEAE by Preferred Term: Insomnia (5 mg single dose) | Drug Related TEAE by Preferred Term: Photophobia (5 mg single dose) | Drug Related TEAE by Preferred Term: Pollakiuria (5 mg single dose) | Drug Related TEAE by Preferred Term: Tachycardia (5 mg single dose) | Drug Related TEAE by Preferred Term: Urinary incontinence (5 mg single dose) | TEAE by Highest Severity: Moderate (5 mg single dose) | TEAE by Highest Severity: Severe (5 mg single dose) | TEAE by Preferred Term: Altered state of consciousness (5 mg single dose) | TEAE by Preferred Term: Constipation (5 mg single dose) | TEAE by Preferred Term: Contusion (5 mg single dose) | TEAE by Preferred Term: Dizziness (5 mg single dose) | TEAE by Preferred Term: Dizziness postural (5 mg single dose) | TEAE by Preferred Term: Feeling jittery (5 mg single dose) | TEAE by Preferred Term: Headache (5 mg single dose) | TEAE by Preferred Term: Insomnia (5 mg single dose) | TEAE by Preferred Term: Nasal dryness (5 mg single dose) | TEAE by Preferred Term: Nausea (5 mg single dose) | TEAE by Preferred Term: Photophobia (5 mg single dose) | TEAE by Preferred Term: Pollakiuria (5 mg single dose) | TEAE by Preferred Term: Rash (5 mg single dose) | TEAE by Preferred Term: Tachycardia (5 mg single dose) | TEAE by Preferred Term: Urinary incontinence (5 mg single dose) | AE Leading to Study Drug Discontinuation (12 mg single dose) | Any SAEs (12 mg single dose) | Death (12 mg single dose) | Drug Related TEAE by Preferred Term: Altered state of consciousness (12 mg single dose) | Drug Related TEAE by Preferred Term: Dizziness (12 mg single dose) | Drug Related TEAE by Preferred Term: Dizziness postural (12 mg single dose) | Drug Related TEAE by Preferred Term: Feeling jittery (12 mg single dose) | Drug Related TEAE by Preferred Term: Headache (12 mg single dose) | Drug Related TEAE by Preferred Term: Initial insomnia (12 mg single dose) | Drug Related TEAE by Preferred Term: Insomnia (12 mg single dose) | Drug Related TEAE by Preferred Term: Photophobia (12 mg single dose) | Drug Related TEAE by Preferred Term: Tachycardia (12 mg single dose) | Drug Related TEAE by Preferred Term: Urinary incontinence (12 mg single dose) | TEAE by Highest Severity: Moderate (12 mg single dose) | TEAE by Highest Severity: Severe (12 mg single dose) | TEAE by Preferred Term: Altered state of consciousness (12 mg single dose) | TEAE by Preferred Term: Contusion (12 mg single dose) | TEAE by Preferred Term: Dizziness (12 mg single dose) | TEAE by Preferred Term: Dizziness postural (12 mg single dose) | TEAE by Preferred Term: Dry skin (12 mg single dose) | TEAE by Preferred Term: Feeling jittery (12 mg single dose) | TEAE by Preferred Term: Headache (12 mg single dose) | TEAE by Preferred Term: Initial insomnia (12 mg single dose) | TEAE by Preferred Term: Insomnia (12 mg single dose) | TEAE by Preferred Term: Nasal dryness (12 mg single dose) | TEAE by Preferred Term: Photophobia (12 mg single dose) | TEAE by Preferred Term: Skin lesion (12 mg single dose) | TEAE by Preferred Term: Tachycardia (12 mg single dose) | TEAE by Preferred Term: Urinary incontinence (12 mg single dose) | AE Leading to Study Drug Discontinuation (25 mg single dose)
2 (22.2) n (%): TEAE by Highest Relationship: Not Related (5 mg single dose)
1 (11.1) n (%): Drug Related TEAE by Preferred Term: Initial insomnia (5 mg single dose) | Subjects with at least one treatment-related TEAE (5 mg single dose) | TEAE by Highest Relationship: Related (5 mg single dose) | TEAE by Preferred Term: Dry skin (5 mg single dose) | TEAE by Preferred Term: Initial insomnia (5 mg single dose) | TEAE by Preferred Term: Skin lesion (5 mg single dose) | Subjects with at least one treatment-related TEAE (12 mg single dose) | TEAE by Highest Relationship: Related (12 mg single dose) | TEAE by Preferred Term: Constipation (12 mg single dose) | TEAE by Preferred Term: Nausea (12 mg single dose) | TEAE by Preferred Term: Pollakiuria (12 mg single dose) | TEAE by Preferred Term: Rash (12 mg single dose)
3 (33.3) n (%): Any TEAE (5 mg single dose) | Subjects with at least one TEAE (5 mg single dose) | TEAE by Highest Severity: Mild (5 mg single dose) | TEAE by Highest Relationship: Not Related (12 mg single dose)
4 (44.4) n (%): Any TEAE (12 mg single dose) | Subjects with at least one TEAE (12 mg single dose) | TEAE by Highest Severity: Mild (12 mg single dose)
1 (1.1) n (%): Drug Related TEAE by Preferred Term: Pollakiuria (12 mg single dose)
